Experiment [1] concerns XBP1s. Nature of the experiment: XBP1s protein degradation after cycloheximide. In kind it is cell-based, mouse. Particulars: anisomycin 25 ng/ml two hours, then cycloheximide 10 μg/ml, vs vehicle. As for the experimental part: MEF cells were infected with Ad-XBP1s. After 24 h post-infection, cells were treated with anisomycin at 25 ng/ml or vehicle (DMSO) for 2 h. Translation […] inhibitor cycloheximide (10 μg/ml, Sigma) was added to the medium. Cells were flash frozen in liquid nitrogen at various time points. Protein levels were determined via immunoblotting.

The subject of experiment [2] is XBP1s. Nature of the experiment: Cytoplasmic and nuclear XBP1s protein in cells. In kind it is cell-based, mouse. Particulars: anisomycin 25 ng/ml, two hours. As for the experimental part:
Cytoplasmic and nuclear protein fractions were extracted from cells by using nuclear protein extraction kit from Active Motif (Carlsbad, Calif.). Cells were maintained in 10 cm tissue culture dishes for nuclear/cytoplasmic extraction. After removal of the media, cells were washed with ice-cold phosphate buffered saline (PBS) containing phosphatase inhibitors. Subsequently, 3 ml of ice-cold PBS with phosphatase inhibitors was added and then cells were scrapped out of the dish. Collected cells were separated from PBS by centrifugation for 5 minutes at 500 rpm and resuspended with 500 μl of 1× hypotonic buffer. After 15-minute incubation in hypotonic buffer on ice, 25 μl of supplied detergent was added and cells were vortexed 10 seconds. Cells were centrifuged for 30 seconds at 14,000×g and supernatant (cytoplasmic fraction) was saved for further analysis. Remaining pellet, which contains nuclei, were resuspended with 50 μl of provided complete lysis buffer with 1 mM dithiothreitol (DTT), vortexed 10 seconds, and incubated for 30 minutes on ice. After 30-second vortexing and 10-minute centrifugation at 14,000×g, the supernatant was collected and analyzed as nuclear fraction.

SMILES strings stand for the structures.

Consider `COc1ccc(C[C@H]2NC[C@H](O)[C@H]2OC(C)=O)cc1` [anisomycin], for which, in the experiment on XBP1s [1], the “degradation rate of XBP1s protein” value is reported as “No differences in the degradation rate of XBP1s protein”. In the experiment with XBP1s [2], the “cytoplasmic levels of XBP1s vs vehicle-treated cells” value came out at 28.8 times and the “nuclear levels of XBP1s vs vehicle-treated cells” value was 141.8 times.

(Values after patent US10226514B2, “Methods and compositions for reducing blood glucose levels” (The Children's Medical Center Corporation, priority 2011, dated 2019).)
